Measured values reported in PMC10341786 (International Journal of Molecular Sciences, 2023).

Assays:
[1] = in vitro; settings: pig
[2] = in vitro; settings: pig; remark: listed apart in the source
[3] = system: TBEV; assay: microbe, parasite or virus in culture; format: cell-based, Tick-borne encephalitis virus strain Absettarov; settings: Tick-borne encephalitis virus, PEK, read-out: TBEV EC50
[4] = in vitro; settings: African green monkey
[5] = system: WNV; assay: microbe, parasite or virus in culture; format: cell-based, West Nile virus strain Strix nebulosa-12; settings: West Nile virus, Vero, read-out: WNV EC50
[6] = in vitro; settings: African green monkey; remark: listed apart in the source

| Structure (SMILES) | CC50 [1] [µM] | CC50 [2] [µM] | melting point [°C] | EC50 [3] [µM] | CC50 [4] [µM] | EC50 [5] [µM] | CC50 [6] [µM] |
| --- | --- | --- | --- | --- | --- | --- | --- |
| O=S(=O)(c1ccc2c(c1)OCCO2)N(C1=NOC2(CCCCCCC2)C1)S(=O)(=O)c1ccc2c(c1)OCCO2 [4f, N-((2,3-Dihydrobenzo[b][1, 4]dioxin-6-yl)sulfonyl)-N-(1-oxa-2-azaspiro[4.7]dodec-2-en-3-yl)-2,3-dihydrobenzo[b][1, 4]dioxine-6-sulfonamide] | > 50 | > 50 | 191 to 193 | 13 ± 6 | > 50 | 7.1 ± 1 | > 50 |
| O=S(=O)(c1ccc(F)cc1F)N(C1=NOC2(CCCCCCC2)C1)S(=O)(=O)c1ccc(F)cc1F [4g, N-((2,4-Difluorophenyl)sulfonyl)-2,4-difluoro-N-(1-oxa-2-azaspiro[4.7]dodec-2-en-3-yl)benzenesulfonamide] | > 50 | > 50 | 61 to 62 | > 50 | > 50 | 9.8 ± 2.6 | > 50 |
| O=S(=O)(c1ccc2ccccc2c1)N(C1=NOC2(CCCCCCC2)C1)S(=O)(=O)c1ccc2ccccc2c1 [4j, N-(Naphthalen-2-ylsulfonyl)-N-(1-oxa-2-azaspiro[4.7]dodec-2-en-3-yl)naphthalene-2-sulfonamide] | > 50 | > 50 | 160 to 161 | 17 ± 3 | > 50 | 1.3 ± 0.5 | > 50 |
| O=S(=O)(c1cccs1)N(C1=NOC2(CCCCCCC2)C1)S(=O)(=O)c1cccs1 [4k, N-(1-Oxa-2-azaspiro[4.7]dodec-2-en-3-yl)-N-(thiophen-2-ylsulfonyl)thiophene-2-sulfonamide] | > 50 | > 50 | 147 | > 50 | > 50 | 10 ± 4 | > 50 |
| O=S(=O)(c1cccnc1)N(C1=NOC2(CCCCCCC2)C1)S(=O)(=O)c1cccnc1 [4l, N-(Pyridin-3-ylsulfonyl)-N-(1-oxa-2-azaspiro[4.7]dodec-2-en-3-yl)pyridine-3-sulfonamide] | > 50 | > 50 | 151 to 152 | 15 ± 4 | > 50 | 8 ± 4 | > 50 |
| O=S(=O)(Cc1ccccc1)N(C1=NOC2CCCCCCC12)S(=O)(=O)Cc1ccccc1 (stereo not drawn) [5b, N-(Benzylsulfonyl)-N-(3a,4,5,6,7,8,9,9a-octahydrocycloocta[d]isoxazol-3-yl)-1-phenylmethanesulfonamide] | > 50 | > 50 | 198 to 199 | 21.7 ± 2.8 | > 50 | 6.3 ± 1.2 | > 50 |
| O=S(=O)(c1ccccc1)N(C1=NOC2CCCCCCC12)S(=O)(=O)c1ccccc1 (stereo not drawn) [5c, N-(3a,4,5,6,7,8,9,9a-Octahydrocycloocta[d]isoxazol-3-yl)-N-(phenylsulfonyl)benzenesulfonamide] | > 50 | > 50 | 107 to 108 | > 50 | > 50 | 18 ± 4 | > 50 |
| Cc1ccc(S(=O)(=O)N(C2=NOC3CCCCCCC23)S(=O)(=O)c2ccc(C)cc2)cc1 (stereo not drawn) [5d, 4-Methyl-N-(3a,4,5,6,7,8,9,9a-octahydrocycloocta[d]isoxazol-3-yl)-N-tosylbenzenesulfonamide] | > 50 | > 50 | 113 to 114 | 34 ± 4 | > 50 | 14 ± 8 | > 50 |
| Cc1cc(C)c(S(=O)(=O)N(C2=NOC3CCCCCCC23)S(=O)(=O)c2c(C)cc(C)cc2C)c(C)c1 (stereo not drawn) [5e, N-(Mesitylsulfonyl)-2,4,6-trimethyl-N-(3a,4,5,6,7,8,9,9a-octahydrocycloocta[d]isoxazol-3-yl)benzenesulfonamide] | > 50 | > 50 | 148 to 149 | 10 ± 5 | > 50 | 4 ± 0.6 | > 50 |
| O=S(=O)(c1ccc2c(c1)OCCO2)N(C1=NOC2CCCCCCC12)S(=O)(=O)c1ccc2c(c1)OCCO2 (stereo not drawn) [5f, N-((2,3-Dihydrobenzo[b][1, 4]dioxin-6-yl)sulfonyl)-N-(3a,4,5,6,7,8,9,9a-octahydrocycloocta[d]isoxazol-3-yl)-2,3-dihydrobenzo[b][1, 4]dioxine-6-sulfonamide] | > 50 | > 50 | 129 to 130 | 29 ± 7 | > 50 | 16 ± 10 | > 50 |
| O=S(=O)(c1ccc(F)cc1F)N(C1=NOC2CCCCCCC12)S(=O)(=O)c1ccc(F)cc1F (stereo not drawn) [5g, N-((2,4-difluorophenyl)sulfonyl)-2,4-difluoro-N-(3a,4,5,6,7,8,9,9a-octahydrocycloocta[d]isoxazol-3-yl)benzenesulfonamide] | > 50 | > 50 | 129 to 131 | 33 ± 15 | > 50 | 12 ± 6 | > 50 |
| O=[N+]([O-])c1ccccc1S(=O)(=O)N(C1=NOC2CCCCCCC12)S(=O)(=O)c1ccccc1[N+](=O)[O-] (stereo not drawn) [5h, 2-Nitro-N-((2-nitrophenyl)sulfonyl)-N-(3a,4,5,6,7,8,9,9a-octahydrocycloocta[d]isoxazol-3-yl)benzenesulfonamide] | > 50 | > 50 | 153 to 154 | 12 ± 6 | – | 17 ± 3 | – |
| NC(=O)c1nc(F)c[nH]c1=O [Favipiravir, reference compound] | > 1000 | – | – | – | > 1000 | 102 ± 28 | > 1000 |
| Nc1onc(C(=O)OCC23CC4CC(CC(C4)C2)C3)c1CCc1ccccc1 [compound 6, reference compound] | > 100 | > 100 | – | 2.29 ± 0.17 | – | – | > 100 |
